# Values quoted from earlier work as cited in patent US20070053923A1, “Dna vaccine composition with enhanced immunogenicity” (priority 2003, published 2007).
# Tested on: immune cells
# Conditions: via FPR and FPRL1, as reported
substance,measurement,value
WKYMVM-NH2,Activation of immune cells,potent activator of immune cells
